This is an account of results in ChEMBL document CHEMBL1128870, “Synthesis and anti-HIV activities of 2-deoxy-2,2-difluoro--L-ribofuranosyl-pyrimidine and -purine nucleosides” (Bioorg Med Chem Lett, 1995).

Bounds are passed on as bounds.

A short description of test [1]: In vitro anti-HIV activity against HIV-1 in human peripheral blood mononuclear (PBM) cells. Format: functional.
Test [2] can be described thus: Cytotoxic activity against HIV-1 in peripheral blood mononuclear (PBM) cells. Format: functional. The settings on record: Homo sapiens.
The test system of another test is Vero. Description: Cytotoxic activity against HIV-1 in rapidly dividing vero cells. Format: functional, cell-based. As to conditions: Chlorocebus sabaeus.

`CC(C)(C)[Si](C)(C)OC1[C@H](CO)O[C@H](n2ccc(N)nc2=O)C1(F)F` (single isomer, unassigned) gave an EC50 in test [1] above 100 µM. Also, the IC50 (in test [2]; in the test with Vero) was above 100 µM throughout.
`CC(C)(C)[Si](C)(C)OC1[C@H](CO)O[C@@H](n2ccc(N)nc2=O)C1(F)F` (single isomer, unassigned): in test [1], the EC50 is above 100 µM. Also, the IC50 (in test [2]; in the test with Vero) was above 100 µM throughout.
For the compound `Nc1ncnc2c1ncn2[C@@H]1O[C@@H](CO)C(O)C1(F)F` (single isomer, unassigned), the EC50 in test [1] is above 100 µM. Besides, the IC50 (in test [2]; with Vero) was above 100 µM each time.
The compound `Nc1ncnc2c1ncn2[C@H]1O[C@@H](CO)C(O)C1(F)F` (single isomer, unassigned) displayed a concentration giving a half-maximal response (EC50) in test [1] of 3.4 µM. Also, the IC50 (in test [2]; in the test with Vero) was above 100 µM each time.
Turning to `Cc1cn([C@H]2O[C@@H](CO)C(O[Si](C)(C)C(C)(C)C)C2(F)F)c(=O)[nH]c1=O` (single isomer, unassigned), the concentration for a half-maximal effect (EC50) in test [1] is above 100 µM. The IC50 (in test [2]; with Vero) was above 100 µM throughout.
In turn, `Cc1cn([C@@H]2O[C@@H](CO)C(O[Si](C)(C)C(C)(C)C)C2(F)F)c(=O)[nH]c1=O` (single isomer, unassigned) returned an EC50 in test [1] above 100 µM. In addition, the half-maximal inhibitory concentration (IC50) (in test [2]; in the test with Vero) was above 100 µM each time.
Turning to `Cc1cn([C@H]2C[C@H](N=[N+]=[N-])[C@@H](CO)O2)c(=O)[nH]c1=O` [ZIDOVUDINE], the midpoint of the response in test [1], the EC50, lay at 0.004 µM. In test [2], the 50% inhibitory concentration (IC50) is above 100 µM.
